# Assays:
# [1] = tested on: moles; assay: Effect of oral administration on 4 moles on left ankle and 4 small moles around them; type: in vivo, human; details: for Color and shape of mole No. 4, left ankle: Jun. 20, 2013: brown circular
# From the text: On the part slightly above the left ankle, 4 black moles were observed. From a direction of the little toe of the left foot, there were 3 black circular moles having a similar diameter ranging from about 3.7 mm to about 4 mm, present almost in one line with an interval of 2.4 cm and 2.6 cm. […]
# At a position 6 mm above the second mole, there was a red oval mole of 1 mm×1.7 mm. […]
# [2] = tested on: senile plaques; assay: Change in 5 senile plaques on the back of both hands of patient A under orally administered cabergoline; type: in vivo, human
# From the text: To find out the pharmaceutical effect of orally administered cabergoline, a change in the symptom of 5 senile plaques occurring on the back of both hands of patient A was investigated for 10 weeks from Jun. 20, 2013 (Thursday) to Aug. 29, 2013 (Thursday).
# Patient A was a person with prolactin-producing pituitary adenoma. Before the clinical test of the treatment, patient A had dark brown circle-like senile plaques, specifically, 3 plaques on the back of the left hand (long diameter 11 mm×short diameter 8 mm, long diameter 8 mm×short diameter 6 mm, and long diameter 7 mm×short diameter 5 mm) and 2 plaques on the back of the right hand (long diameter 10 mm×short diameter 8 mm and long diameter 7 mm×short diameter 6 mm).
# According to the doctor's instruction, oral administration was performed twice/week, on Monday and Thursday, for the first 4 weeks (from June 20 to July 15), and the dose was 2 mg/4 weeks.
# A total of 1 mg of cabergoline were orally administered by this 4-week administration (administration dates are as follows: July 18, July 25, August 1, and August 8).
# The cabergoline administration on week 9 and week 10 was performed on August 15 (Thursday) and August 22 (Thursday).
# [3] = Jan. 17, 2014 (after 210 days), listed as novel skin treatment agent
# [4] = Jan. 17, 2014 (after 210 days), size 1.8 × 2.2 wrapped over two grid lines, Jun. 20, 2013: 3.9 mm
# [5] = Mar. 20, 2014 (after 272 days), vague border, Jun. 20, 2013: black circular
compound,measurement,setting,value
C=CCN1C[C@H](C(=O)N(CCCN(C)C)C(=O)NCC)C[C@@H]2c3cccc4[nH]cc(c34)C[C@H]21 [cabergoline],"Color and shape of mole No. 1, left ankle","[1]; Dec. 4, 2013 (after 166 days), Jun. 20, 2013: black circular",a red circular mole
same,"Diameter of mole No. 1, left ankle","[1]; Dec. 4, 2013 (after 166 days), Jun. 20, 2013: black circular, diameter 3.7 mm",1.2 mm. The color
same,"Color and shape of mole No. 4, left ankle","[1]; Dec. 4, 2013 (after 166 days)",yellow-brown circular mole
same,"Diameter of mole No. 4, left ankle","[1]; Dec. 4, 2013 (after 166 days), Jun. 20, 2013: brown circular mole of 2.0 × 1.8 mm","with a diameter of 1.0 mm,"
same,Diameter of the 2 red moles among the small moles above mole No. 3,"[1]; Dec. 4, 2013 (after 166 days), Jun. 20, 2013: diameter 1.5 mm",diameter of 0.5 mm.
same,"Color and shape of mole No. 3, left ankle","[1]; Dec. 4, 2013 (after 166 days), cell continues: brown rectangular mole, vague border, Jun. 20, 2013: black circular",The mole shrunk to a blackish
same,"Color of mole No. 2, left ankle","[1]; Dec. 4, 2013 (after 166 days), oval, vague border, Jun. 20, 2013: black circular",faded to light brown.
same,State of the 3 small moles above mole No. 3,"[1]; Jan. 17, 2014 (after 210 days)",completely disappeared
same,State of the small mole above mole No. 2,"[1]; Jan. 17, 2014 (after 210 days)",completely disappeared
same,"Diameter of mole No. 1, left ankle","[1]; Jan. 17, 2014 (after 210 days), Jun. 20, 2013: 3.7 mm",1.0 mm.
same,"Color and shape of mole No. 1, left ankle","[1]; Jan. 17, 2014 (after 210 days), Jun. 20, 2013: black circular",Red circular mole
same,"Color and shape of mole No. 4, left ankle","[1]; Jan. 17, 2014 (after 210 days)",Light brown line-shaped
same,State of the 3 small moles above mole No. 3,[1]; [3],The upper 3 moles disappeared.
same,State of the small mole above mole No. 2,[1]; [3],The upper mole disappeared.
same,"Length of mole No. 2, left ankle",[1]; [4],2.2 mm with a vague border.
same,"Width of mole No. 2, left ankle",[1]; [4],1.8 mm
same,"Color and shape of mole No. 2, left ankle","[1]; Jan. 17, 2014 (after 210 days), vague border, Jun. 20, 2013: black circular",Light brown oval mole
same,"Diameter of mole No. 1, left ankle","[1]; Mar. 20, 2014 (after 272 days), Jun. 20, 2013: 3.7 mm",1 mm
same,"Diameter of mole No. 1, left ankle","[1]; Mar. 20, 2014 (after 272 days), Jun. 20, 2013: 3.7 mm, listed as novel skin treatment agent",diameter of 1.0 mm.
same,"Diameter of mole No. 2, left ankle","[1]; Mar. 20, 2014 (after 272 days), Jun. 20, 2013: 3.9 mm",2 mm
same,"Diameter of mole No. 2, left ankle","[1]; Mar. 20, 2014 (after 272 days), Jun. 20, 2013: 3.9 mm, listed as novel skin treatment agent",diameter of 2.0 mm with a vague
same,"Color and shape of mole No. 1, left ankle","[1]; Mar. 20, 2014 (after 272 days), Jun. 20, 2013: black circular",red circular shape
same,"Color and shape of mole No. 1, left ankle","[1]; Mar. 20, 2014 (after 272 days), Jun. 20, 2013: black circular, listed as novel skin treatment agent",Light red circular
same,"Color and shape of mole No. 4, left ankle","[1]; Mar. 20, 2014 (after 272 days), cell continues: shaped mole",only a trace of a faint line shape was observed
same,"Color and shape of mole No. 4, left ankle","[1]; Mar. 20, 2014 (after 272 days), cell continues: shaped mole, listed as novel skin treatment agent",Very light brown line-
same,"Color and shape of mole No. 2, left ankle",[1]; [5],pale light brown circular mole
same,"Color and shape of mole No. 3, left ankle",[1]; [5],blackish brown color and an almost rectangular shape
same,"Color and shape of mole No. 3, left ankle","[1]; Mar. 20, 2014 (after 272 days), vague border, Jun. 20, 2013: black circular, listed as novel skin treatment agent",Dark brown rectangular mole of
same,color of the senile plaques,"[2]; August, 6 weeks after starting cabergoline administration",started to become lighter
same,state of the senile plaques,"[2]; end of August, after 10 weeks oral cabergoline",clearly disappeared
same,state of the 5 senile plaques,"[2]; first 4 weeks (June 20 to July 15), oral twice/week, 2 mg/4 weeks, direct observation",no change was recognized
same,skin of the back of both hands,"[2]; from end of August, previously flecked with pigmented macules and dry",gradually started to become white and have lighter skin texture
same,size of the senile plaques,"[2]; from mid-August, one tablet (0.25 mg)/week oral",started to show a tendency to shrink in size

# Reference: patent US20170112741A1, “AGENT FOR AMELIORATING SKIN SYMPTOM, HAIR GROWTH AGENT OR SLIMMING AGENT” (GOLDCREST MEDICINE INSTITUTE CO., LTD., priority 2014, published 2017)
